In patent publication US20110200992A1, “Biological Compositions, Articles and Methods for Monitoring Sterilization Processes” (priority 2008, published 2011):

Columns and labels:
[1] = system: spores of Gb stearothermophilus; assay: Fluorescence intensity vs. time of spore suspension with dye, with or without nutrients (Example 1); format: cell-based; details: Acridine Orange 6.6 μM, ex 485 nm, em 530 nm, 50° C.; for Fluorescence Intensity of Spore Suspension with Dye: no nutrients
Protocol: Spore suspensions of Gb. stearothermophilus (also known as Bacillus stearothermophilus) were prepared by known methods as described in Example 1 of U.S. Pat. No. 5,418,167 ([…] et al.). Modifications of these methods and alternative methods known to those skilled in the art may also be used for preparing these suspensions. Representative cell-permeant dyes from the following classes: green fluorescent nucleic acid stains, red fluorescent nucleic acid stains, and Acridine Orange were tested with spores of Gb stearothermophilus. Specifically, 100 microliters of the spore suspension described above were combined with 200 microlitres of a 1:5000 dilution of the dye with Sterile Water For Irrigation (Baxter, Deerfield, Ill.) or with nutrients glucose, fructose, and potassium chloride in water (1 mg/ml, 1 mg/ml, and 3.3 mgs/ml, respectively), 0.2 M valine, 0.04 M isoleucine, 0.2 M methionine, 4 mg/ml inosine, and 0.4 M alanine. The fluorescence intensity of each of the resulting suspensions was monitored at an incubation temperature of 50° C., using the following dyes at the concentrations and excitation and emission wavelengths indicated below: SYTO 24: 1.0 μM (micromolar); excitation at 485 nm, emission at 530 nm; Acridine Orange: 6.6 μM; excitation at 485 nm, emission at 530 nm; SYTO 64: 1.0 μM; excitation at 530 nm, emission at 620 nm. The dyes are available from Invitrogen, (Carlsbad, Calif.). Fluorescence was monitored in a Biotek FL600 fluorimeter or Biotek Synergy 4 plate reader (Biotek, Winooski, Vt.).

[2] = system: spores; assay: Fluorescence over a range of dye concentrations with decreasing concentrations of spores (Example 5); format: cell-based, Gb. stearothermophilus; details: for Fluorescence intensity (normalized): ex 485/em 530 nm, 50° C.
Protocol: Dilutions were prepared using Sterile Water For Irrigation (Baxter, Deerfield, Ill.) and tested at a final population ranging between of 1×10^6 and 0 spores. The spore dilutions (100 microlitres) were combined with 200 microlitres of medium, consisting of Acridine Orange and nutrients as described in Example 1, with Acridine Orange concentrations at 1:5000 (0.0066 mM), 1:1000 (0.033 mM) and 1:500 (0.066 mM), each of the resulting mixtures was added to a well of a plate. The plate was subsequently placed in a preheated plate reader (BioTek Synergy 4 plate reader, Winooski, Vt.) at 50° C. and incubated for 60 min, during which fluorescence intensity readings were taken using excitation at 485 nm and emission at 530 nm. A summary of the normalized data is listed below in Table 5a-5c.

CN(C)c1ccc2cc3ccc(N(C)C)cc3nc2c1 [Acridine Orange]
Fluorescence Intensity of Spore Suspension with Dye ([1]; 0 min): 2005
Fluorescence Intensity of Spore Suspension with Dye ([1]; 10 min): 2665
Fluorescence Intensity of Spore Suspension with Dye ([1]; 20 min): 4069
Fluorescence Intensity of Spore Suspension with Dye ([1]; 30 min): 5655
Fluorescence Intensity of Spore Suspension with Dye ([1]; 40 min): 7091
Fluorescence Intensity of Spore Suspension with Dye and Nutrients ([1]; 0 min): 2687
Fluorescence Intensity of Spore Suspension with Dye and Nutrients ([1]; 10 min): 2777
Fluorescence Intensity of Spore Suspension with Dye and Nutrients ([1]; 20 min): 4241
Fluorescence Intensity of Spore Suspension with Dye and Nutrients ([1]; 30 min): 7842
Fluorescence Intensity of Spore Suspension with Dye and Nutrients ([1]; 40 min): 11708
Dependence of signal on dye concentration ([2]; 0.0066, 0.033, 0.066 mM): the higher the signal
Detection of spores (lowest spore population shown) ([2]; all Acridine Orange concentrations (0.0066, 0.033, 0.066 mM)): Detection of E3 spores was shown
Fluorescence intensity (normalized) ([2]; dye 0.0066 mM with nutrients, 0 spores, 0:00:00): 0
Fluorescence intensity (normalized) ([2]; dye 0.0066 mM with nutrients, 0 spores, 0:15:00): 711
Fluorescence intensity (normalized) ([2]; dye 0.0066 mM with nutrients, 0 spores, 0:30:00): 886.5
Fluorescence intensity (normalized) ([2]; dye 0.0066 mM with nutrients, 0 spores, 0:45:00): 1027
Fluorescence intensity (normalized) ([2]; dye 0.0066 mM with nutrients, 0 spores, 1:00:00): 1147.5
Fluorescence intensity (normalized) ([2]; dye 0.0066 mM with nutrients, E3 spores, 0:00:00): 0
Fluorescence intensity (normalized) ([2]; dye 0.0066 mM with nutrients, E3 spores, 0:15:00): 2033
Fluorescence intensity (normalized) ([2]; dye 0.0066 mM with nutrients, E3 spores, 0:30:00): 2271.5
Fluorescence intensity (normalized) ([2]; dye 0.0066 mM with nutrients, E3 spores, 0:45:00): 2396
Fluorescence intensity (normalized) ([2]; dye 0.0066 mM with nutrients, E3 spores, 1:00:00): 2484.5
Fluorescence intensity (normalized) ([2]; dye 0.0066 mM with nutrients, E4 spores, 0:00:00): 0
Fluorescence intensity (normalized) ([2]; dye 0.0066 mM with nutrients, E4 spores, 0:15:00): 3754.5
Fluorescence intensity (normalized) ([2]; dye 0.0066 mM with nutrients, E4 spores, 0:30:00): 4088
Fluorescence intensity (normalized) ([2]; dye 0.0066 mM with nutrients, E4 spores, 0:45:00): 4174
Fluorescence intensity (normalized) ([2]; dye 0.0066 mM with nutrients, E4 spores, 1:00:00): 4268
Fluorescence intensity (normalized) ([2]; dye 0.0066 mM with nutrients, E5 spores, 0:00:00): 0
Fluorescence intensity (normalized) ([2]; dye 0.0066 mM with nutrients, E5 spores, 0:15:00): 5224
Fluorescence intensity (normalized) ([2]; dye 0.0066 mM with nutrients, E5 spores, 0:30:00): 5364
Fluorescence intensity (normalized) ([2]; dye 0.0066 mM with nutrients, E5 spores, 0:45:00): 5373
Fluorescence intensity (normalized) ([2]; dye 0.0066 mM with nutrients, E5 spores, 1:00:00): 5406
Fluorescence intensity (normalized) ([2]; dye 0.0066 mM with nutrients, E6 spores, 0:00:00): 0
Fluorescence intensity (normalized) ([2]; dye 0.0066 mM with nutrients, E6 spores, 0:15:00): 12024.5
Fluorescence intensity (normalized) ([2]; dye 0.0066 mM with nutrients, E6 spores, 0:30:00): 15320
Fluorescence intensity (normalized) ([2]; dye 0.0066 mM with nutrients, E6 spores, 0:45:00): 16514.5
Fluorescence intensity (normalized) ([2]; dye 0.0066 mM with nutrients, E6 spores, 1:00:00): 17130.5
Fluorescence intensity (normalized) ([2]; dye 0.033 mM with nutrients, 0 spores, 0:00:00): 0
Fluorescence intensity (normalized) ([2]; dye 0.033 mM with nutrients, 0 spores, 0:15:00): 740
Fluorescence intensity (normalized) ([2]; dye 0.033 mM with nutrients, 0 spores, 0:30:00): 958
Fluorescence intensity (normalized) ([2]; dye 0.033 mM with nutrients, 0 spores, 0:45:00): 1143.5
Fluorescence intensity (normalized) ([2]; dye 0.033 mM with nutrients, 0 spores, 1:00:00): 1280
Fluorescence intensity (normalized) ([2]; dye 0.033 mM with nutrients, E3 spores, 0:00:00): 0
Fluorescence intensity (normalized) ([2]; dye 0.033 mM with nutrients, E3 spores, 0:15:00): 2022.5
Fluorescence intensity (normalized) ([2]; dye 0.033 mM with nutrients, E3 spores, 0:30:00): 2281
Fluorescence intensity (normalized) ([2]; dye 0.033 mM with nutrients, E3 spores, 0:45:00): 2437
Fluorescence intensity (normalized) ([2]; dye 0.033 mM with nutrients, E3 spores, 1:00:00): 2558.5
Fluorescence intensity (normalized) ([2]; dye 0.033 mM with nutrients, E4 spores, 0:00:00): 0
Fluorescence intensity (normalized) ([2]; dye 0.033 mM with nutrients, E4 spores, 0:15:00): 3467
Fluorescence intensity (normalized) ([2]; dye 0.033 mM with nutrients, E4 spores, 0:30:00): 3640.5
Fluorescence intensity (normalized) ([2]; dye 0.033 mM with nutrients, E4 spores, 0:45:00): 3724
Fluorescence intensity (normalized) ([2]; dye 0.033 mM with nutrients, E4 spores, 1:00:00): 3810.5
Fluorescence intensity (normalized) ([2]; dye 0.033 mM with nutrients, E5 spores, 0:00:00): 0
Fluorescence intensity (normalized) ([2]; dye 0.033 mM with nutrients, E5 spores, 0:15:00): 5012
Fluorescence intensity (normalized) ([2]; dye 0.033 mM with nutrients, E5 spores, 0:30:00): 5029
Fluorescence intensity (normalized) ([2]; dye 0.033 mM with nutrients, E5 spores, 0:45:00): 4999
Fluorescence intensity (normalized) ([2]; dye 0.033 mM with nutrients, E5 spores, 1:00:00): 5068
Fluorescence intensity (normalized) ([2]; dye 0.033 mM with nutrients, E6 spores, 0:00:00): 0
Fluorescence intensity (normalized) ([2]; dye 0.033 mM with nutrients, E6 spores, 0:15:00): 14427.5
Fluorescence intensity (normalized) ([2]; dye 0.033 mM with nutrients, E6 spores, 0:30:00): 19073.5
Fluorescence intensity (normalized) ([2]; dye 0.033 mM with nutrients, E6 spores, 0:45:00): 20802.5
Fluorescence intensity (normalized) ([2]; dye 0.033 mM with nutrients, E6 spores, 1:00:00): 21688
Fluorescence intensity (normalized) ([2]; dye 0.066 mM with nutrients, 0 spores, 0:00:00): 0.0
Fluorescence intensity (normalized) ([2]; dye 0.066 mM with nutrients, 0 spores, 0:15:00): 815.5
Fluorescence intensity (normalized) ([2]; dye 0.066 mM with nutrients, 0 spores, 0:30:00): 1026.0
Fluorescence intensity (normalized) ([2]; dye 0.066 mM with nutrients, 0 spores, 0:45:00): 1184.5
Fluorescence intensity (normalized) ([2]; dye 0.066 mM with nutrients, 0 spores, 1:00:00): 1287.5
Fluorescence intensity (normalized) ([2]; dye 0.066 mM with nutrients, E3 spores, 0:00:00): 0.0
Fluorescence intensity (normalized) ([2]; dye 0.066 mM with nutrients, E3 spores, 0:15:00): 3420.0
Fluorescence intensity (normalized) ([2]; dye 0.066 mM with nutrients, E3 spores, 0:30:00): 3716.0
Fluorescence intensity (normalized) ([2]; dye 0.066 mM with nutrients, E3 spores, 0:45:00): 3902.5
Fluorescence intensity (normalized) ([2]; dye 0.066 mM with nutrients, E3 spores, 1:00:00): 4000.5
Fluorescence intensity (normalized) ([2]; dye 0.066 mM with nutrients, E4 spores, 0:00:00): 0.0
Fluorescence intensity (normalized) ([2]; dye 0.066 mM with nutrients, E4 spores, 0:15:00): 3261.5
Fluorescence intensity (normalized) ([2]; dye 0.066 mM with nutrients, E4 spores, 0:30:00): 3464.0
Fluorescence intensity (normalized) ([2]; dye 0.066 mM with nutrients, E4 spores, 0:45:00): 3586.5
Fluorescence intensity (normalized) ([2]; dye 0.066 mM with nutrients, E4 spores, 1:00:00): 3626.5
Fluorescence intensity (normalized) ([2]; dye 0.066 mM with nutrients, E5 spores, 0:00:00): 0.0
Fluorescence intensity (normalized) ([2]; dye 0.066 mM with nutrients, E5 spores, 0:15:00): 3422.5
Fluorescence intensity (normalized) ([2]; dye 0.066 mM with nutrients, E5 spores, 0:30:00): 3533.0
Fluorescence intensity (normalized) ([2]; dye 0.066 mM with nutrients, E5 spores, 0:45:00): 3606.0
Fluorescence intensity (normalized) ([2]; dye 0.066 mM with nutrients, E5 spores, 1:00:00): 3616.0
Fluorescence intensity (normalized) ([2]; dye 0.066 mM with nutrients, E6 spores, 0:00:00): 0.0
Fluorescence intensity (normalized) ([2]; dye 0.066 mM with nutrients, E6 spores, 0:15:00): 13727.5
Fluorescence intensity (normalized) ([2]; dye 0.066 mM with nutrients, E6 spores, 0:30:00): 15331.5
Fluorescence intensity (normalized) ([2]; dye 0.066 mM with nutrients, E6 spores, 0:45:00): 15529.5
Fluorescence intensity (normalized) ([2]; dye 0.066 mM with nutrients, E6 spores, 1:00:00): 15629.0
